Patent publication US20260274833A1 (NiKang Therapeutics, Inc., priority 2022, published 2026)

biological target: T1, CDK2 (Homo sapiens, UniProt P24941); test: Phospho-RB measurement in OVCAR3 cells (HTRF phospho-RB cellular kit); assay type: cell-based; conditions: inhibition of RB phosphorylation at S807/811 (HTRF, TR-FRET ratio 665/620), 24 h compound treatment, 0.3 to 10,000 nM
T1 construct: endogenous in cells; host or cells: OVCAR3 cells
How it was run: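 IC50 came from a four-parameter logistic fit of the DMSO-normalized TR-FRET ratio (665/620 nm). That ratio reflects RB phosphorylation at S807/811, read with an HTRF antibody pair 4 h after adding lysate at room temperature.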

Row | Structure (SMILES) | IC50
1 | CN1CCN(S(=O)(=O)N2CCC(Nc3nccc(-c4sc(C(C)(C)C)nc4-c4cccc(NS(=O)(=O)N(C)C5CCC5)c4F)n3)CC2)CC1 [Example 111, N-(3-(2-(tert-butyl)-5-(2-((1-((4-methylpiperazin-1-yl)sulfonyl)piperidin-4-yl)amino)pyrimidin-4-yl)thiazol-4-yl)-2-fluorophenyl)-(N-methyl-N-cyclobutylamine)-sulfonamide] | 908 nM
2 | CN1CCN(S(=O)(=O)N2CCC(Nc3nccc(-c4sc(C(C)(C)C)nc4-c4cccc(NS(=O)(=O)N(C)C5CC5)c4F)n3)CC2)CC1 [Example 112, N-(3-(2-(tert-butyl)-5-(2-((1-((4-methylpiperazin-1-yl)sulfonyl)piperidin-4-yl)amino)pyrimidin-4-yl)thiazol-4-yl)-2-fluorophenyl)-(N-methyl-N-cyclopropylamine)-sulfonamide] | 1210 nM
3 | CC(C)(C)c1nc(-c2cccc(NS(=O)(=O)N3Cc4ccccc4C3)c2F)c(-c2ccnc(NC3CCN(S(=O)(=O)N4CCNCC4)CC3)n2)s1 [Example 113, N-(3-(2-(tert-butyl)-5-(2-((1-(piperazin-1-ylsulfonyl)piperidin-4-yl)amino)-pyrimidin-4-yl)thiazol-4-yl)-2-fluoro-phenyl)isoindoline-2-sulfonamide] | 120 nM
4 | CC(C)(C)c1nc(-c2cccc(NS(=O)(=O)N3CCc4ccccc4C3)c2F)c(-c2ccnc(NC3CCN(S(=O)(=O)N4CCNCC4)CC3)n2)s1 [Example 114, N-(3-(2-(tert-butyl)-5-(2-((1-(piperazin-1-ylsulfonyl)piperidin-4-yl)amino)-pyrimidin-4-yl)thiazol-4-yl)-2-fluoro-phenyl)-3,4-dihydro-isoquinoline-2(1H)-sulfonamide] | 276 nM
5 | CC(C)(C)c1nc(-c2cccc(NS(=O)(=O)N3CCOc4ccccc4C3)c2F)c(-c2ccnc(NC3CCN(S(=O)(=O)N4CCNCC4)CC3)n2)s1 [Example 115, N-(3-(2-(tert-butyl)-5-(2-((1-(piperazin-1-ylsulfonyl)piperidin-4-yl)amino)-pyrimidin-4-yl)thiazol-4-yl)-2-fluorophenyl)-2,3-dihydrobenzo [f][1,4]-oxazepine-4(5H)-sulfonamide] | 636 nM
6 | CC(C)(C)c1nc(-c2cccc(NS(=O)(=O)N3CCNc4ccccc4C3)c2F)c(-c2ccnc(NC3CCN(S(=O)(=O)N4CCNCC4)CC3)n2)s1 [Example 116, N-(3-(2-(tert-butyl)-S-(2-((1-(piperazin-1-ylsulfonyl)piperidin-4-yl)amino)-pyrimidin-4-yl)thiazol-4-yl)-2-fluorophenyl)-1,2,3,5-tetrahydro-4H-benzo[e][1,4] diazepine-4-sulfonamide] | 390 nM
7 | CC(C)(C)c1nc(-c2cccc(NS(=O)(=O)N3CCc4ccc(C#N)cc43)c2F)c(-c2ccnc(NC3CCN(S(C)(=O)=O)CC3)n2)s1 [Example 118, N-(3-(2-(tert-butyl)-5-(2-((1-(methylsulfonyl)-piperidin-4-yl)amino)-pyrimidin-4-yl)thiazol-4-yl)-2-fluorophenyl)-6-cyanoindoline-1-sulfonamide] | 66.9 nM
8 | COc1ccc2c(c1)CN(S(=O)(=O)Nc1cccc(-c3nc(C(C)(C)C)sc3-c3ccnc(NC4CCN(S(=O)(=O)N5CCNCC5)CC4)n3)c1F)C2 [Example 119, N-(3-(2-(tert-butyl)-5-(2-((1-(piperazin-1-ylsulfonyl)piperidin-4-yl)amino)-pyrimidin-4-yl)thiazol-4-yl)-2-fluoro-phenyl)-5-methoxy-isoindoline-2-sulfonamide] | 397 nM
9 | CC(C)(C)c1nc(-c2cccc(NS(=O)(=O)N3CCc4ccc(C#N)cc43)c2F)c(-c2ccnc(NC3CCN(S(=O)(=O)N4CCNCC4)CC3)n2)s1 [Example 120, N-(3-(2-(tert-butyl)-5-(2-((1-(piperazin-1-ylsulfonyl)piperidin-4-yl)amino)-pyrimidin-4-yl)thiazol-4-yl)-2-fluorophenyl)-6-cyanoindoline-1-sulfonamide] | 86.9 nM
10 | CN(C)CCN(C)S(=O)(=O)N1CCC(Nc2nccc(-c3sc(C(C)(C)C)nc3-c3cccc(NS(=O)(=O)N4Cc5cccnc5C4)c3F)n2)CC1 [Example 121, N-(3-(2-(tert-butyl)-5-(2-((1~(N-(2-(dimethylamino)ethyl)-N-methylsulfamoyl)-piperidin-4-yl)amino)-pyrimidin-4-yl)thiazol-4-yl)-2-fluoro-phenyl)-5,7-dihydro-6H-pyrrolo[3,4-b]-pyridine-6-sulfonamide] | 265 nM
11 | CN(C)CCN(C)S(=O)(=O)N1CCC(Nc2nccc(-c3sc(C(C)(C)C)nc3-c3cccc(NS(=O)(=O)N4CCc5ccc(C#N)cc54)c3F)n2)CC1 [Example 122, N-(3-(2-(tert-butyl)-5-(2-((1-(N-(2-(dimethylamino)ethyl)-N-methylsulfamoyl)-piperidin-4-yl)amino)-pyrimidin-4-yl)thiazol-4-yl)-2-fluoro-phenyl)-6-cyanoindoline-1-sulfonamide] | 54 nM

Continued, values first:

Row | IC50 | Structure (SMILES)
12 | 75.2 nM | CN(C)CCN(C)S(=O)(=O)N1CCC(Nc2nccc(-c3sc(C(C)(C)C)nc3-c3cccc(NS(=O)(=O)N4CCc5c(C#N)cccc54)c3F)n2)CC1 [Example 123, N-(3-(2-(tert-butyl)-5-(2-((1-(N-(2-(dimethylamino)ethyl)-N-methylsulfamoyl)-piperidin-4-yl)amino)-pyrimidin-4-yl)thiazol-4-yl)-2-fluoro-phenyl)-4-cyanoindoline-1-sulfonamide]
13 | 151 nM | CC(C)(C)c1nc(-c2cccc(NS(=O)(=O)N3CCc4c(C#N)cccc43)c2F)c(-c2ccnc(NC3CCN(S(=O)(=O)N4CCNCC4)CC3)n2)s1 [Example 124, N-(3-(2-(tert-butyl)-5-(2-((1-(piperazin-1-ylsulfonyl)piperidin-4-yl)amino)-pyrimidin-4-yl)thiazol-4-yl)-2-fluoro-phenyl)-4-cyanoindoline-1-sulfonamide]
14 | 204 nM | CN1CCN(S(=O)(=O)N2CCC(Nc3nccc(-c4sc(C(C)(C)C)nc4-c4cccc(NS(=O)(=O)N5CCc6c(C#N)cccc65)c4F)n3)CC2)CC1 [Example 125, N-(3-(2-(tert-butyl)-5-(2-((1-((4-methyl-piperazin-1-yl)sulfonyl)piperidin-4-yl)amino)-pyrimidin-4-yl)thiazol-4-yl)-2-fluorophenyl)-4-cyanoindoline-1-sulfonamide]
15 | 366 nM | CC(C)(C)c1nc(-c2cccc(NS(=O)(=O)N3Cc4ccncc4C3)c2F)c(-c2ccnc(NC3CCN(S(=O)(=O)N4CCNCC4)CC3)n2)s1 [Example 126, N-(3-(2-(tert-butyl)-5-(2-((1-(piperazin-1-ylsulfonyl)piperidin-4-yl)amino)-pyrimidin-4-yl)thiazol-4-yl)-2-fluorophenyl)-1,3-dihydro-2H-pyrrolo[3,4-c] pyridine-2-sulfonamide]
16 | 208 nM | CN1CCN(S(=O)(=O)N2CCC(Nc3nccc(-c4sc(C(C)(C)C)nc4-c4cccc(NS(=O)(=O)N5Cc6cccnc6C5)c4F)n3)CC2)CC1 [Example 127, N-(3-(2-(tert-butyl)-5-(2-((1-((4-methyl-piperazin-1-yl)sulfonyl)piperidin-4-yl)amino)-pyrimidin-4-yl)thiazol-4-yl)-2-fluorophenyl)-5,7-dihydro-6H-pyrrolo[3,4-b] pyridine-6-sulfonamide]
17 | 162 nM | CN1CCN(S(=O)(=O)N2CCC(Nc3nccc(-c4sc(C(C)(C)C)nc4-c4cccc(NS(=O)(=O)N5Cc6ccncc6C5)c4F)n3)CC2)CC1 [Example 128, N-(3-(2-(tert-butyl)-5-(2-((1-((4-methylpiperazin-1-yl)sulfonyl)piperidin-4.yl)-amino)pyrimidin~4-yl)thiazol-4-yl)-2-fluorophenyl)-1,3-dihydro-2H-pyrrolo[3,4-c]-pyridine-2-sulfonamide]
18 | 328 nM | CC(C)(C)c1nc(-c2cccc(NS(=O)(=O)N3CCNc4ccccc43)c2F)c(-c2ccnc(NC3CCN(S(=O)(=O)N4CCNCC4)CC3)n2)s1 [Example 129, N-(3-(2-(tert-butyl)-5-(2-((1-(piperazin-1-ylsulfonyl)piperidin-4-yl)amino)-pyrimidin-4-yl)thiazol-4-yl)-2-fluoro-phenyl)-3,4-dihydroquinoxaline-1(2H)-sulfonamide]
19 | 268 nM | C[C@@H]1c2ccccc2CN1S(=O)(=O)Nc1cccc(-c2nc(C(C)(C)C)sc2-c2ccnc(NC3CCN(S(C)(=O)=O)CC3)n2)c1F [Example 130, (R)-N-(3-(2-(tert-butyl)-5-(2-((1-(methyl-sulfonyl)piperidin-4-yl)amino)-pyrimidin-4-yl)thiazol-4-yl)-2-fluoro-phenyl)-1-methyliso-indoline-2-sulfonamide]
20 | 160 nM | C[C@H]1c2ccccc2CN1S(=O)(=O)Nc1cccc(-c2nc(C(C)(C)C)sc2-c2ccnc(NC3CCN(S(C)(=O)=O)CC3)n2)c1F [Example 131, (S)-N-(3-(2-(tert-butyl)-5-(2-((1-(methyl-sulfonyl)piperidin-4-yl)amino)pyrimidin-4-yl)thiazol-4-yl)-2-fluoro-phenyl)-1-methyliso-indoline-2-sulfonamide]
21 | 310 nM | CC(C)(C)c1nc(-c2cccc(NS(=O)(=O)N3Cc4cccnc4C3)c2F)c(-c2ccnc(NC3CCN(S(=O)(=O)N4CCNCC4)CC3)n2)s1 [Example 132, N-(3-(2-(tert-butyl)-5-(2-((1-(piperazin-1-ylsulfonyl)piperidin-4-yl)amino)-pyrimidin-4-yl)thiazol-4-yl)-2-fluoro-phenyl)-5,7-dihydro-6H-pyrrolo[3,4-b]-pyridine-6-sulfonamide]
22 | 331 nM | CN(C)Cc1cccc2c1CCN2S(=O)(=O)Nc1cccc(-c2nc(C(C)(C)C)sc2-c2ccnc(NC3CCN(S(C)(=O)=O)CC3)n2)c1F [Example 133, N-(3-(2-(tert-butyl)-5-(2-((1-(methylsulfonyl)-piperidin-4-yl)amino)-pyrimidin-4-yl)thiazol-4-yl)-2-fluoro-phenyl)-4-((dimethylamino)methyl)-indoline-1-sulfonamide]
